Results on six compounds are retold here after patent US10556865B2, “Synergistic herbicidal composition containing certain pyridine or pyrimidine carboxylic acids and certain cereal and rice herbicides” (Dow AgroSciences, LLC, priority 2007, dated 2020).

What all share (assay type): in vivo
For test [1], the system named is Polygonum pensylvanicum L. (POLPY). Description: Postemergence herbicidal mixtures for weed control in direct seeded rice (greenhouse, visual % injury). As to conditions: for % Injury Ob: POLPY.
The subject of test [2] is Ischaemum rugosum SALISB. (ISCRU). The test is described as above. As to conditions: ISCRU.
The subject of test [3] is Brachiaria platyphylla (BRISEB.) NASH (BRAPP). The test is described as above.
In test [4] the test system is Cyperus esculentus L. (CYPES). The description is as above. As to conditions: CYPES.
A further test relates to Cyperus iria L. (CYPIR). The test is described as above. As to conditions: CYPIR.
Test [5] concerns Scirpus maritimus L. (SCPMA). The test is described as above. As to conditions: for % Injury Ob: SCPMA.
Test [6] relates to Fimbristylis miliacea (L.) VAHL (FIMMI). The test is described as above. As to conditions: for % Injury Ob: FIMMI.
Test [7] has as its system blackgrass (Alopecurus myosuroides L; ALOMY). The test is described as follows: Postemergence herbicidal activity of mixtures in cereal crops (greenhouse, visual injury 0-100 percent after 20-22 days). As to conditions: 15 g/ha, Table 1. The method, boiled down:
(§1)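 Plants at second-third true leaf stage sprayed postemergence at 187 L/ha with compound and second cereal herbicide alone and combined; solvent blank controls. Visual injury scored 0-100% versus controls after 20-22 days; expected mixture effects by Colby's equation.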

Test [8] concerns annual ryegrass (Lolium multiflorum L; LOLMG). Description: Postemergence herbicidal activity of mixtures in cereal crops (greenhouse, visual injury). As to conditions: 15 g/ha, Table 1. An outline of the steps:
as §1

Test [9] concerns wild oats (Avena fatua L; AVEFA). Described as above. As to conditions: 15 g/ha, Table 1. The method, boiled down: as §1
In test [10] the test system is windgrass (Apera spica-venti L; APESV). The test is described as above. As to conditions: Apera spica-venti, post-emergence, 15 g/ha, Table 1; read-out: APESV Ob. An outline of the steps: as §1
Test [11] has as its system chickweed (Stellaria media L; STEME). The test is described as above. As to conditions: Stellaria media, post-emergence, 15 g/ha; read-out: STEME Ob. An outline of the steps: (§2)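 Greenhouse-grown plants at 2nd–3rd true leaf stage (14 h photoperiod, ~18/17 °C) sprayed postemergence at 187 L/ha with compound A or B (methyl ester or TEA/K salt) and a second cereal herbicide, alone and in two- or three-way mixtures. Visual injury (0–100%) scored versus solvent-blank controls after 20–22 days; expected mixture activity calculated by Colby's equation.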

Test [12] relates to green foxtail (Setaria viridis L; SETVI). Described as above. As to conditions: 15 g/ha, Table 1. An outline of the steps:
as §2

For test [13], the system named is kochia (Kochia scoparia L; KCHSC). The test is described as above. An outline of the steps: as §2
Test [14] concerns lamb's-quarters (Chenopodium album L; CHEAL). The description is as above. As to conditions: 15 g/ha. The method, boiled down:
as §2

Test [15] concerns wild mustard (Sinapis arvensis L; SINAR). The description is as above. An outline of the steps: as §2
Test [16] deals with bird's-eye speedwell (Veronica persica L; VERPE). The description is as above. An outline of the steps: (§3)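 Weeds grown in greenhouse (~14 h photoperiod, ~18/17 °C day/night) to second–third true leaf stage, sprayed postemergence with compound and second cereal herbicide alone or combined; solvent-blank controls. Injury scored visually after 20-22 days, 0–100% (complete kill); expected mixture activity = A+B−(A×B/100).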

Test [17] relates to scented mayweed (Matricaria chamomila L; MATCH). The test is described as above. An outline of the steps: as §3
Test [18] has as its system wild pansy (Viola tricolor L; VIOTR). The test is described as above. An outline of the steps: as §3
In test [19] the test system is Fimbristylis miliacea (L.) VAHL (FIMMI). Description: Herbicidal mixtures for weed control in transplanted paddy rice (in-water application, visual % injury). As to conditions: 35 g/ha alone. On the procedure:
(§4) Weed seeds or nutlets of the desired test plant species were planted in puddled soil (mud) prepared by mixing a non-sterilized mineral soil (28 percent silt, 18 percent clay, and 54 percent sand, with a pH of about 7.3 to 7.8 and an organic matter content of about 1.0 percent) and water at a ratio of 100 kilograms (kg) of soil to 19 L of water. The prepared mud was dispensed in 250 mL aliquots into 480 mL non-perforated plastic pots with a surface area of 91.6 square centimeters leaving a headspace of 3 centimeters in each pot. Rice seeds were planted in Sun Gro MetroMix® 306 planting mixture, which typically has a pH of 6.0 to 6.8 and an organic matter content of about 30 percent, in plastic plug trays. Seedlings at the second or third leaf stage of growth were transplanted into 650 mL of mud contained in 960 mL non-perforated plastic pots with a surface area of 91.6 cm^2 4 days prior to herbicide application. The paddy was created by filling the 3 centimeter headspace of the pots with water. […] The plants were grown for 4-14 days in a greenhouse with an approximate 14 hr photoperiod which was maintained at about 29° C. during the day and 26° C. during the night. Nutrients were added as Osmocote (17:6:10, N:P:K+minor nutrients) at 2 g per cup. Water was added on a regular basis to maintain the paddy flood, and supplemental lighting was provided with overhead metal halide 1000-Watt lamps as necessary. The plants were employed for testing when they reached the second or third true leaf stage.
(§5) Treatments consisted of esters or salts of compound A, compound C, or compound D and various herbicidal components alone and in combination. For technical grade compounds, a weighed amount, determined by the highest rate to be tested, was placed in an individual 120 mL glass vial and was dissolved in 20 mL of acetone to obtain concentrated stock solutions. […] The concentrated stock solutions obtained were diluted with 20 mL of an aqueous mixture containing 2.5% Agri-dex crop oil concentrate (v/v). For formulated compounds, a measured amount, determined by the highest rate to be tested, was placed in an individual 120 mL glass vial and was dissolved in 20 mL of 2.5% (v/v) Agri-dex crop oil concentrate to obtain concentrated stock solutions. The concentrated stock solutions obtained were diluted with 20 mL of acetone. Applications were made by injecting an appropriate amount of the stock solution into the aqueous layer of the paddy. Control plants were treated in the same manner with the solvent blank. All treated plant material received the same concentration of acetone and crop oil concentrate.
(§6) Forms of compounds A, C, and D were applied on an acid equivalent basis. Other herbicidal components were applied on an active ingredient basis and included acetolactate synthase (ALS)-inhibiting herbicides penoxsulam (triazolopyrimidine chemical class) applied as Grasp SC, […] (sulfonylurea chemical class) applied as Sirius G, and bensulfuron-methyl (sulfonylurea chemical class) applied as Londax; acetyl CoA carboxylase (ACCase) inhibiting herbicides cyhalofop-butyl applied as Clincher G and fenoxaprop-p-ethyl applied as Ricestar HT; auxinic herbicide quinclorac applied as Facet 75 DF; phytoene desaturase inhibiting herbicide norflurazon; and p-hydroxyphenylpyruvate dioxygenase (HPPD) inhibiting herbicide sulcotrione applied as Mikado.
(§7) The treated plants and control plants were placed in a greenhouse as described above and water was added as needed to maintain a paddy flood. After 3 weeks the condition of the test plants as compared with that of the untreated plants was determined visually and scored on a scale of 0 to 100 percent where 0 corresponds to no injury and 100 corresponds to complete kill.

Another test relates to Scirpus species (SCPSS). The test is described as above. As to conditions: SCPJU; 35 g/ha alone. As for the experimental part: as §4, §5, §6, §7
In test [20] the test system is Russian thistle (Salsola iberica L; SASKR). The test is described as follows: Postemergence herbicidal activity of mixtures in cereal crops (greenhouse, visual injury). An outline of the steps:
as §2

The subject of test [21] is Leptochloa chinensis (L.) NEES (LEFCH). The test is described as follows: Postemergence herbicidal mixtures for weed control in direct seeded rice (greenhouse, visual % injury). As to conditions: LEFCH; 70 g/ha alone.
Test [22] deals with Digitaria sanguinalis (L.) SCOP. (DIGSA). The description is as above.
In test [23] the test system is ivy-leaved speedwell (Veronica hederifolia L; VERHE). The test is described as follows: Postemergence herbicidal activity of mixtures in cereal crops (greenhouse, visual injury). As to conditions: 12.5 g/ha. An outline of the steps:
as §2

Values joined by “and” are separate entries in the source; they are usually repeats but may differ in a detail not shown here. Equal entries are not always repeated.

Take `C=CCOC(=O)c1nc(-c2ccc(Cl)c(OC)c2F)cc(N)c1Cl` [Compound A Allyl]: the “% Injury Ob” value in test [1] (17.5 g/ha alone) was 90%; in [1] (35 g/ha alone), 70%; in test [2] (8.75 g/ha alone), 10%; in [2] (17.5 g/ha alone), 40%; in [3] (4.38 g/ha alone), 80%; in [3] (8.75 g/ha alone) it was 60% and 80% and 100%. Further, the “% Injury Ob” value came out at 99% in [3] (17.5 g/ha alone); 50% in [4] (17.5 g/ha alone); 95% in [4] (35 g/ha alone); 35% with Cyperus iria L. (CYPIR) (17.5 g/ha alone); 85% in the test with Cyperus iria L. (CYPIR) (35 g/ha alone); 10% in [5] (17.5 g/ha alone). Further, the “% Injury Ob” value in test [5] (35 g/ha alone) was determined as 20%; in test [6] (8.75 g/ha alone), 0%; in test [6] (35 g/ha alone), 60%. Besides, in [1] (alone 17.5 g/ha), the “% Injury POLPY Ob” value is given as 70%. The “% Injury SCPMA Ob” value in [5] (alone 17.5 g/ha) is given as 0%. Moreover, in test [6] (alone 17.5 g/ha), the “% Injury FIMMI Ob” value was determined as 40%.
Take `O=C(Nc1ccc(F)cc1F)c1cccnc1Oc1cccc(C(F)(F)F)c1` [Diflufenican, N-(2,4-difluorophenyl)-2-[3-(trifluoromethyl)phenoxy]-3-pyridinecarboxamide, reference compound]: in test [7], the “ALOMY Ob” value was found to be 0%. Further, the “LOLMG Ob” value in [8] came out at 0%. Besides, the “AVEFA Ob” value in test [9] was 0%. The pest or weed control at 15 g/ha in test [10] is 0%; in test [11], 3%; in test [16] (Veronica persica, post-emergence, 15 g/ha, read-out: VERPE Ob), 38%; in test [17] (Matricaria, post-emergence, 15 g/ha, read-out: MATCH Ob), 5%; in test [18] (Viola tricolor, post-emergence, 15 g/ha, read-out: VIOTR Ob), 15%. Besides, in test [12], the “SETVI Ob” value is 0%. Moreover, in test [13] (12.5 g/ha alone), the “KCHSC Ob” value is 12%. Further, the “CHEAL Ob” value in [14] was 0%. Moreover, the “SINAR Ob” value in [15] (15 g/ha) is 0%. In addition, the pest or weed control at 12.5 g/ha in test [16] (Veronica persica, post-emergence, 12.5 g/ha alone, read-out: VERPE Ob) was found to be 7%; in test [17] (Matricaria, post-emergence, 12.5 g/ha alone, read-out: MATCH Ob) it was 7%; in test [18] (Viola tricolor, post-emergence, 12.5 g/ha alone, read-out: VIOTR Ob), 35%.
Regarding `CCOC(=O)[C@@H](C)Oc1ccc(Oc2nc3ccc(Cl)cc3o2)cc1` [Fenoxaprop-p-ethyl], in test [1] (alone 35 g/ha), the “% Injury POLPY Ob” value is 0%. Also, in test [5] (alone 35 g/ha), the “% Injury SCPMA Ob” value stood at 0%. In addition, in [6] (alone 35 g/ha), the “% Injury FIMMI Ob” value is 0%. The “% Injury Ob” value (in test [19]; in the test with Scirpus species (SCPSS)) was 0% each time.
For the compound `O=C(O)CNCP(=O)(O)O` [Glyphosate], the “SASKR Ob” value in [20] (52.5 g/ha alone) is given as 0%. For the same compound, in test [13] (52.5 g/ha alone), the “KCHSC Ob” value turned out to be 0%. Further, the pest or weed control at 52.5 g/ha in test [18] (Viola tricolor, post-emergence, read-out: VIOTR Ob) stood at 52%. The “% Injury Ob” value came to 0% in test [1] (70 g/ha alone), 20% in test [21] and 0% in test [22] (70 g/ha alone).
`O=C(Nc1ccc(F)cc1)c1cccc(Oc2cccc(C(F)(F)F)c2)n1` [Picolinafen]: the “SASKR Ob” value in [20] (15 g/ha alone) was 60%. Moreover, the “VERHE Ob” value in test [23] worked out at 5%. Besides, in [13] (12.5 g/ha), the “KCHSC Ob” value was found to be 5%. Moreover, the “SINAR Ob” value in [15] (12.5 g/ha) came to 5%. The “VERPE Ob” value stood at 0% in test [16] (12.5 g/ha) and 43% in test [16] (15 g/ha alone). For the same compound, the “MATCH Ob” value in test [17] (15 g/ha alone) came out at 10%. Further, the “VIOTR Ob” value in test [18] (12.5 g/ha) is 0%; in [18] (15 g/ha alone), 78%.
With `O=c1c(Cl)c[nH]c(Cl)c1Cl` [Pyriclor], the “% Injury Ob” value in test [22] (140 g/ha alone) is given as 80%.
